Results reported in PubChem BioAssay AID2060610 (Molecular Pharmacology Branch, DTP, NCI, 2025).
“And” between values parts separate entries of the source, which are not always exact repeats. Equal values may be shown once. One block for each compound: values may come before it.

System: 616215-338-R-J1-PDC complex spheroids, viability % test/control
Assay: Anticancer human tumor 616215-338-R-J1-PDC patient-derived colon adenocarcinoma cell line growth inhibition [CLK]
Details: for viability, T/C: stronger effect = lower value
Outline: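 Patient-derived tumor cells grown as complex spheroids with HUVEC endothelial cells and mesenchymal stem cells, treated with drug combinations. Concentrations descend in half-log steps from near clinical Cmax, or from 10 microM if Cmax unknown.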

[1] = curve of first compound, second compound 0.0316 µM
[2] = curve of first compound, second compound 0.1 µM
[3] = curve of first compound, second compound 0.316 µM
[4] = curve of first compound, second compound 1 µM
[5] = curve of first compound, second compound 3.16 µM
[6] = curve of first compound, second compound 10 µM
[7] = second compound 0.0316 µM, first compound 0.0316 µM
[8] = second compound 0.0316 µM, first compound 0.1 µM
[9] = second compound 0.0316 µM, first compound 0.316 µM
[10] = second compound 0.0316 µM, first compound 1 µM
[11] = second compound 0.0316 µM, first compound 3.16 µM
[12] = second compound 0.0316 µM, first compound 10 µM
[13] = second compound 0.1 µM, first compound 0.0316 µM
[14] = second compound 0.1 µM, first compound 0.1 µM
[15] = second compound 0.1 µM, first compound 0.316 µM
[16] = second compound 0.1 µM, first compound 1 µM
[17] = second compound 0.1 µM, first compound 3.16 µM
[18] = second compound 0.1 µM, first compound 10 µM
[19] = second compound 0.316 µM, first compound 0.0316 µM
[20] = second compound 0.316 µM, first compound 0.1 µM
[21] = second compound 0.316 µM, first compound 0.316 µM
[22] = second compound 0.316 µM, first compound 1 µM
[23] = second compound 0.316 µM, first compound 3.16 µM
[24] = second compound 0.316 µM, first compound 10 µM
[25] = second compound 1 µM, first compound 0.0316 µM
[26] = second compound 1 µM, first compound 0.1 µM
[27] = second compound 1 µM, first compound 0.316 µM
[28] = second compound 1 µM, first compound 1 µM
[29] = second compound 1 µM, first compound 3.16 µM
[30] = second compound 1 µM, first compound 10 µM
[31] = second compound 3.16 µM, first compound 0.0316 µM
[32] = second compound 3.16 µM, first compound 0.1 µM
[33] = second compound 3.16 µM, first compound 0.316 µM
[34] = second compound 3.16 µM, first compound 1 µM
[35] = second compound 3.16 µM, first compound 3.16 µM
[36] = second compound 3.16 µM, first compound 10 µM
[37] = second compound 10 µM, first compound 0.0316 µM
[38] = second compound 10 µM, first compound 0.1 µM
[39] = second compound 10 µM, first compound 0.316 µM
[40] = second compound 10 µM, first compound 1 µM
[41] = second compound 10 µM, first compound 3.16 µM
[42] = second compound 10 µM, first compound 10 µM
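Also: spheroids exposed to agents for 7 days.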
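For viability, T/C in this document: 100% = DMSO vehicle wells.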

IC50 (curve of compound): > 1000 nM
Compound: CCN1CCN(Cc2ccc(Nc3ncc(F)c(-c4cc(F)c5nc(C)n(C(C)C)c5c4)n3)nc2)CC1
viability, T/C (compound 0.00316 µM): 104% and 92% | viability, T/C (compound 0.01 µM): 125% and 93.7% | viability, T/C (compound 0.0316 µM): 111% and 103% | viability, T/C (compound 0.1 µM): 139% and 121% | viability, T/C (compound 0.316 µM): 158% and 189% | viability, T/C (compound 1 µM): 59.4% and 69.7%

IC50 (curve of compound): 142 nM and 299 nM
Compound: COc1cccc2c1C(=O)c1c(O)c3c(c(O)c1C2=O)CC(O)(C(=O)CO)CC3OC1CC(N)C(O)C(C)O1 (stereo not given)
viability, T/C (compound 0.0316 µM): 102% and 112% | viability, T/C (compound 0.1 µM): 45.9% and 64.2% | viability, T/C (compound 0.316 µM): 40.4% and 49.8% | viability, T/C (compound 1 µM): 24% and 41.3% | viability, T/C (compound 3.16 µM): 0.74% and 0.78% | viability, T/C (compound 10 µM): 0.16% and 0.24%

More lines, now with the values behind:

Compound: Nc1ccn(C2OC(CO)C(O)C2(F)F)c(=O)n1 (stereo not given) + CN1CCN(c2cc(C(=O)Nc3cc4cc(-c5cnn(C)c5)ccc4cn3)ccn2)CC1
IC50 [1]: < 31.6 nM | IC50 [2]: < 31.6 nM | IC50 [3]: < 31.6 nM | IC50 [4]: < 31.6 nM | IC50 [5]: < 31.6 nM | IC50 [6]: < 31.6 nM | viability, T/C [7]: 15.5% | viability, T/C [8]: 10.3% | viability, T/C [9]: 14.1% | viability, T/C [10]: 13.6% | viability, T/C [11]: 14.3% | viability, T/C [12]: 12.7% | viability, T/C [13]: 18% | viability, T/C [14]: 14.5% | viability, T/C [15]: 14% | viability, T/C [16]: 14.3% | viability, T/C [17]: 17% | viability, T/C [18]: 18% | viability, T/C [19]: 13.8% | viability, T/C [20]: 11% | viability, T/C [21]: 13.8% | viability, T/C [22]: 10.6% | viability, T/C [23]: 12.1% | viability, T/C [24]: 13.3% | viability, T/C [25]: 0.1% | viability, T/C [26]: 0.13% | viability, T/C [27]: 2.94% | viability, T/C [28]: 0.12% | viability, T/C [29]: 1.83% | viability, T/C [30]: 1.85% | viability, T/C [31]: 0.1% | viability, T/C [32]: 0.13% | viability, T/C [33]: 0.14% | viability, T/C [34]: 0.09% | viability, T/C [35]: 0.1% | viability, T/C [36]: 0.11% | viability, T/C [37]: 0.15% | viability, T/C [38]: 1.73% | viability, T/C [39]: 0.16% | viability, T/C [40]: 2% | viability, T/C [41]: 3.33% | viability, T/C [42]: 0.18%

Compound: C=CC(=O)N1CCN(c2nc(=O)n(-c3c(C)ccnc3C(C)C)c3nc(-c4c(O)cccc4F)c(F)cc23)C(C)C1 (stereo not given) + CNC(=O)c1ccc(Nc2nc(OC3CCCC3)c3c(-c4ccc5nc(C)oc5c4)c[nH]c3n2)c(OC)c1
IC50 [1]: > 10000 nM | IC50 [2]: > 10000 nM | IC50 [3]: < 31.6 nM | IC50 [4]: > 10000 nM | IC50 [5]: < 31.6 nM | IC50 [6]: < 31.6 nM | viability, T/C [7]: 89.8% | viability, T/C [8]: 94.6% | viability, T/C [9]: 92.8% | viability, T/C [10]: 93.2% | viability, T/C [11]: 94.6% | viability, T/C [12]: 95.1% | viability, T/C [13]: 53.8% | viability, T/C [14]: 67.8% | viability, T/C [15]: 60.8% | viability, T/C [16]: 64% | viability, T/C [17]: 55.1% | viability, T/C [18]: 56.4% | viability, T/C [19]: 49.7% | viability, T/C [20]: 44.8% | viability, T/C [21]: 46.9% | viability, T/C [22]: 49.8% | viability, T/C [23]: 53.1% | viability, T/C [24]: 49.2% | viability, T/C [25]: 58.5% | viability, T/C [26]: 49.1% | viability, T/C [27]: 50.4% | viability, T/C [28]: 48.9% | viability, T/C [29]: 54.6% | viability, T/C [30]: 54.6% | viability, T/C [31]: 43.2% | viability, T/C [32]: 45.2% | viability, T/C [33]: 40.1% | viability, T/C [34]: 49.1% | viability, T/C [35]: 59.3% | viability, T/C [36]: 52.6% | viability, T/C [37]: 43.5% | viability, T/C [38]: 41.3% | viability, T/C [39]: 46.3% | viability, T/C [40]: 56.6% | viability, T/C [41]: 53.6% | viability, T/C [42]: 54.8%

Compound: CC1COCCN1c1cc(C2(S(C)(=N)=O)CC2)nc(-c2ccnc3[nH]ccc23)n1 (stereo not given) + CN1CCN(c2cc(C(=O)Nc3cc4cc(-c5cnn(C)c5)ccc4cn3)ccn2)CC1
IC50 [1]: > 10000 nM | IC50 [2]: 4970 nM | IC50 [3]: < 31.6 nM | IC50 [4]: < 31.6 nM | IC50 [5]: < 31.6 nM | IC50 [6]: < 31.6 nM | viability, T/C [7]: 98.6% | viability, T/C [8]: 99.8% | viability, T/C [9]: 95.3% | viability, T/C [10]: 105% | viability, T/C [11]: 102% | viability, T/C [12]: 54.7% | viability, T/C [13]: 117% | viability, T/C [14]: 106% | viability, T/C [15]: 96.6% | viability, T/C [16]: 102% | viability, T/C [17]: 60.5% | viability, T/C [18]: 33.5% | viability, T/C [19]: 34.7% | viability, T/C [20]: 29.4% | viability, T/C [21]: 28.4% | viability, T/C [22]: 21.3% | viability, T/C [23]: 23.9% | viability, T/C [24]: 15.4% | viability, T/C [25]: 0.14% | viability, T/C [26]: 2.28% | viability, T/C [27]: 2.21% | viability, T/C [28]: 0.15% | viability, T/C [29]: 0.1% | viability, T/C [30]: 2.62% | viability, T/C [31]: 0.14% | viability, T/C [32]: 0.12% | viability, T/C [33]: 0.15% | viability, T/C [34]: 0.14% | viability, T/C [35]: 2.05% | viability, T/C [36]: 3.08% | viability, T/C [37]: 0.16% | viability, T/C [38]: 0.15% | viability, T/C [39]: 0.21% | viability, T/C [40]: 0.23% | viability, T/C [41]: 0.23% | viability, T/C [42]: 0.24%
